Data from patent US20230383264A1, “FULLY FUNCTIONAL CONTRACTILE GASTROINTESTINAL ORGANOID SYSTEM, GENERATED FROM HUMAN-INDUCED PLURIPOTENT STEM CELLS TO DEVELOP A HIGH THROUGHPUT SYSTEM FOR DETECTING EXISTING AND NEWLY-EMERGING PATHOGENS, DRUGS, TOXICITY AND THEREOF” (NeyroblastGX LLC,, priority 2022, published 2023).
Values joined by “and” are separate entries in the source; they are usually repeats but may differ in a detail not shown here. Identical values can stand only once. “Also recorded” adds a separate entry of the source.

Columns and labels:
Type in all cases: cell-based, human
[1] = tested on: microbiota-treated GIO bacterial community; experiment: Shotgun metagenomics of fecal microbiota-treated GIO; settings: LPS-treated GIO vs GIO without LPS, with fecal microbiota
Description: Our UT-GIO and Sus-GIO were treated with fecal microbiota to generate GIO with a complete gut-microbiome system observed in vivo.^38,39 In this context, we first prepared fecal microbiota, purchased from Discovery Life Sciences (DLS). DLS obtains fecal microbiota samples according to their protocol approved by their internal review board (IRB). Then, 100 mg of fecal microbiota was dissolved with sterile PBS and filtered by a 70 μm cell strainer to remove aggregates. Filtered fecal microbiota was further diluted 1:100 using an intestinal expansion medium without penicillin/streptomycin. […] Microbiota-treated GIO with or without LPS and pathogenic/nonpathogenic bacterial culture media sample was analyzed by University of California, San Diego (UCSD) Microbiome Core to obtain metagenomic profiles.
In total, pathogenic and non-pathogenic UT (untreated) and Sus (susceptible)-GIO samples were processed for total DNA extraction and metagenomic library preparation and sequencing. […] Sequencing data were processed first by performing adapter trimming and human-read filtering via pairwise alignments using minimap2. All reads were uploaded into qiita, and taxonomy was assigned using the Web of Life toolkit (WoLtka) implementation in Qiime2 via QIITA (read more here: https://github.com/qiyunzhu/woltka). […]

[2] = tested on: GIO (gastrointestinal organoids from HiPSCs); experiment: 10-plex proinflammatory cytokine array of LPS-treated GIO media
Description: 10-plex proinflammatory cytokine (ProC) measurement of LPS and pathogen/non-pathogenic bacterial treated GIO media (supernatant) was assayed using the Luminex multiplexing cytokine suspension array technology (Immune Monitoring Core Facility, USC, CA). Measurements of IL-2, IL-6, IL-8, IL-10, IL-13, TNF-α, INF-γ, MIP-1α and MIP-1β in the supernatant were analyzed using a MilliPlex MAP human cytokine/chemokine magnetic bead panel (MilliporeSigma, St. Louis, MO). Plates were read on a Bio-Plex 200 System using Bio-Plex Manager software version 6.0 (BioRad, Hercules, CA). Five (5) parameter logistic regression algorithms were used to determine cytokine concentrations based on provided cytokine standards and averages from triplicate-wells. Each ProC standard was measured using six known concentrations (10.0 ng, 2.0 ng, 0.4 ng, 0.08 ng, 0.016 ng, 0.0032 ng), and most regression values reached >0.99. Limit of detection: The lower limit of quantitation (LLOQ) for each ProCs are IL-13 (0.257 pg/mL), IL-1β (0.485 pg/mL), IL-2 (0.157 pg/mL), IL-8 (0.299 pg/mL), TNF-α (0.382 pg/mL), IL-6 (0.179 pg/mL), INF-γ (0.562 pg/mL), IL-10 (1.510 pg/mL), MIP-1α (0.273 pg/mL), MIP-1β ([…]). We quantified the UT-GIO, LPS-treated Sus-GIO, and Cryo-GIO with or without pathogenic and non-pathogenic bacteria. After analyzing ProC in each treatment, we conducted statistical analyses to determine the significance of the ProC status of pathogenic versus non-pathogenic bacteria in LPS-treated (Sus-GIO) and untreated GIO (UT-GIO) using GraphPad Prism (San Diego, CA). We have performed two-way ANOVA with Tukey's multiple comparisons using GraphPad Prism. *p<0.05, **p<0.01, ***p<0.001, ****p<0.0001 denotes significance.

[3] = tested on: GIO (gastrointestinal organoids from HiPSCs); experiment: Immunocytochemistry of Zo1 (TJP1) and Ki67 in LPS-treated GIO
Excerpt: Immunocytochemistry (ICC) and flow cytometry is a common cellular protein or antigen-detecting and visualization techniques that can recognize the target of interest or specific marker expression in cells via imaging and a series of flow histograms. The antibody is directly or indirectly linked to a reporter, such as a fluorophore or an enzyme. We performed ICC and flow cytometry as a previously established method developed by the PI.^35, 36 Briefly, for flow cytometry, cells were collected and dissociated with trypsin into a single cell and then blocked with 2% mouse serum and staining with conjugated anti-CDX2 antibody (BD Biosciences) as previously established method^11 and run to NovoCyte Flow Cytometer (Agilent Technologies, Santa Clara, CA). We have verified endodermal marker verification using CDX2 expression using flow cytometry. But for ICC, we have grown GIOs on coverslips coated or directly on the 24-well plates. Then cells were washed with PBS (phosphate-buffered saline) and fixed with 4% paraformaldehyde (PFA, Thermo Scientific). After additional washes in PBS, the cells were permeabilized in 0.1% Triton X-100 (Sigma-Aldrich), followed by blocking with 5% BSA (bovine serum albumin) in PBS containing 10% normal goat serum (NGS, Thermofisher Scientific). Next, the cells were incubated overnight with primary antibodies diluted in a blocking solution at […] with an appropriate dilution indicated by the manufacturer. The next day, the cells were washed three times with washing buffer (1×PBS containing 0.05% Tween 20 and 1% NGS). Then cells were incubated for 2 h at 25° C. with a fluorescent secondary antibody (Life Technologies). […] NGL lab-produced GIO followed a similar developmental pathway in the fetus or fetal mouse^37, including smooth muscle contractile ability determined by smoothA and β-actin,^14 GFAP, and MAP2.

[4] = tested on: GIO (gastrointestinal organoids from HiPSCs); experiment: MTT cell viability assay of Fresh-GIO and Cryo-GIO; settings: LPS 96 h
Description: We determined GIO viability after the freeze-thaw cycle using a colorimetric assay to evaluate cell metabolic activity with an MTT [3-(4,5-dimethylthiazol-2-yl)-2,5-diphenyltetrazolium bromide] assay, following the manufacturer's instructions for the assay (MilliporeSigma). To perform the reported established MTT assay^40, we grew GIO in 24-well plates and then treated them with or without LPS for 96 h to observe viability and stability. We added lmg/mL of MTT reagent to each −well containing GIO, followed by the 2 h incubation at 37° C. Further, GIO was washed with sterile PBS, followed by the addition of dimethyl sulfoxide (DMSO) in each—well and mixed. After the 10 min incubation, DMSO was absorbed the MTT and run for a plate reader (SpectraMax iD3 Plate Reader, Molecular Devices, San Jose, CA) with the optical absorption density (OD) of 570 nm to determine the amount of MTT binding in the viable cell. This method determined our GIO's viability and stability after the freeze-thaw cycle with or without inflectional susceptible LPS treatment. We calculated the amount of MTT in each well using the following formula: […]

Q: Which results are given for lipopolysaccharide [LPS]?
A: Change of bacterial community (Bacteroidales bacterium M2) [1]: causes a bloom of an unknown Bacteroides sp; also recorded: caused a bloom of unknown Bacteroides sp; IL-10, IL-1β and IFNγ secretion ([2]; LPS 100 μg/mL, 48 h only): upregulated only in 48 h time points; also recorded: upregulated when treated with only 100 μg/mL LPS for 48 h; IL-2, IL-6, IL-8, TNF-α, MIP-1α and MIP-1β secretion ([2]; LPS 10-100 μg/mL, 24 h and 48 h, dose and time-dependent): upregulated; IL-13 secretion ([2]; any time point or LPS concentration): unable to detect; Effect on Zo1 immunostaining at earlier time point ([3]; 24-48 h): could not see any effect on Zo1; Ki67 (intestinal crypt cell type) expression ([3]; LPS 100 μg/ml, 96 h): decreased; Effect on TJP1 (Zo1) expression ([3]; LPS 50-100 μg/ml, 96 h): affects GIO TJP1; also recorded: disrupts endothelial tight junction protein; Loss of cell viability (MTT) [4]: 15-20% and ~20%
